Literature values as cited in paper PMC4483627 (Marine Drugs, 2015).

Molecular target: T1, rat nAChR α3β4 (Rattus norvegicus, UniProt P04757+P12392)
T1 construct: expressed in transfected cells; host or cells: Xenopus oocytes injected with cRNA
Conditions: cited from earlier work

T1 sequence (P04757 26-499 limits assumed): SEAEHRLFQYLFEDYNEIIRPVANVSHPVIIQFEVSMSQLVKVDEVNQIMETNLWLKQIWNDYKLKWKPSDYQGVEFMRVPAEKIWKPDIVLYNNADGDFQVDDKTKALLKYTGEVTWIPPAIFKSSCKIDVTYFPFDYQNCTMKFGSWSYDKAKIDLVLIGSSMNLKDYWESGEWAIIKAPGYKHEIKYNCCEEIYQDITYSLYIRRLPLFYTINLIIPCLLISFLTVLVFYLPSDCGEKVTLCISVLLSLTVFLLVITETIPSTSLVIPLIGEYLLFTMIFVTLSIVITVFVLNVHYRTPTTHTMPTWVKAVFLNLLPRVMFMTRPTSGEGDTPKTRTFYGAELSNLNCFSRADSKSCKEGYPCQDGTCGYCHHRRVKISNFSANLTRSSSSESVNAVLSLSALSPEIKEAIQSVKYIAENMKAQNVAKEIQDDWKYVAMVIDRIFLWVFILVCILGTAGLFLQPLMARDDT
T1 sequence (P12392 21-495 limits assumed): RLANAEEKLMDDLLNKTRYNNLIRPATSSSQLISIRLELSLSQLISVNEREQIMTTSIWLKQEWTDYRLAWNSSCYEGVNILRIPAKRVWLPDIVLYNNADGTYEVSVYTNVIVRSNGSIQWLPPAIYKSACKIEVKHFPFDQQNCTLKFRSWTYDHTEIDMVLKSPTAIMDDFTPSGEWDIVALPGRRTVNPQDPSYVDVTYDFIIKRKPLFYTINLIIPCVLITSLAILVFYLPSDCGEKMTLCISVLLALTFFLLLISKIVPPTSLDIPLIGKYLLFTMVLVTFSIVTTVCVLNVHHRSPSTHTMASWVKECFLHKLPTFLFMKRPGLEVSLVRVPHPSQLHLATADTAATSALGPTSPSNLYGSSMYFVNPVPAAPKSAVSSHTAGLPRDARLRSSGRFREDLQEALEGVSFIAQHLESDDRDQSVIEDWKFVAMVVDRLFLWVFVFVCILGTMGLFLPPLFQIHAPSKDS

## G CC SHP V C SAMS P I- C * (bicyclic or more) [TxID]
  IC50: 12.5 nM
